Data reported in US20260272895A1, “METHODS AND KITS FOR DELIVERY OF COMPOUNDS INTO CELLS” (Yale University, priority 2023, published 2026).

Experiments:
[1] = target: T1, SLCO1A2 (Homo sapiens, UniProt P46721); test: Compound uptake in HEK293 cells transfected with SLCO1A2; assay type: cell-based; parameters: FLAG; details: concentration not given
T1 sequence (P46721 1-670): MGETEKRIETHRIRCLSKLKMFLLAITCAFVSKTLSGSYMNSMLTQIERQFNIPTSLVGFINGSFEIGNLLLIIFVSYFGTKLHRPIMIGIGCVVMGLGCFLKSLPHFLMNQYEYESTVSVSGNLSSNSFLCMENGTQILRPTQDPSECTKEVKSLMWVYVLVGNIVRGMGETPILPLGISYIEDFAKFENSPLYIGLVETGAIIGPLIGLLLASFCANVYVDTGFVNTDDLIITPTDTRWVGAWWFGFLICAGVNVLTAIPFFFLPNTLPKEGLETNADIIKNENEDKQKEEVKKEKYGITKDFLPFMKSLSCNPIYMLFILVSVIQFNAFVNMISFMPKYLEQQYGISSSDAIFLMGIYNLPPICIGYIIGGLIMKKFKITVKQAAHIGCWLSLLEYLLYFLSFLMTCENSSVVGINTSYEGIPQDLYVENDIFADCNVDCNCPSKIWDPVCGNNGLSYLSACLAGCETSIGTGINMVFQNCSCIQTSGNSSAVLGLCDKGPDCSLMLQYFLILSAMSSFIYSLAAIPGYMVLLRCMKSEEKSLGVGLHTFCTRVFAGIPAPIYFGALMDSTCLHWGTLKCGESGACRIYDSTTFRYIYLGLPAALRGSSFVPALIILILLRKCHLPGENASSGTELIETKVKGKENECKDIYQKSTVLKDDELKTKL
Method: (§1) HEK293 cells are cultured and seeded at ~60% confluency in 24-well plates and are transiently transfected with 250 ng of a candidate transporter and 1 μL transfection reagent (JetPRIME). After 2 days, cells are washed and novel fluorescent probes at different concentrations are added to the transport medium and incubated at 37° C., for at least 30 minutes. To terminate the transport, cells are washed with PBS and fixed with 4% paraformaldehyde. The colocalization of probe uptake and cells expressing the transporters is investigated by immunostaining the transporter which has a fused FLAG tag, using anti-FLAG 488. Before confocal imaging, nuclei are labeled with Hoechst 33342 and cells are mounted and imaged on a Leica SP8 confocal microscope.
(§2) For in vitro experiments, HEK293 cells were cultured and seeded in 24-well plates, reaching approximately 60% confluency. For transient transfection, 250 ng of a candidate transporter plasmid and 1 μL of transfection reagent (JetPRIME) were added to the cells. After a 2-day incubation period, the cells were washed, and novel fluorescent probes were introduced into the transport medium at various concentrations. The cells were then incubated at 37° C., for a minimum of 30 minutes to allow for uptake. To stop the transport process, the cells were washed with PBS and fixed using 4% paraformaldehyde. Immunostaining of the transporter, which was fused with a FLAG tag, was performed using an anti-FLAG 488 antibody. Before confocal imaging, the cell nuclei were labeled with Hoechst 33342. Finally, the cells were mounted and imaged using a Leica SP8 confocal microscope.

[2] = target: T2, Slco1a4 (Mus musculus, UniProt Q9EP96); test: Compound uptake in HEK293 cells transfected with Slco1a4; assay type: cell-based; parameters: FLAG; expressed in transfected cells; details: concentration not given
T2 sequence (Q9EP96 1-670): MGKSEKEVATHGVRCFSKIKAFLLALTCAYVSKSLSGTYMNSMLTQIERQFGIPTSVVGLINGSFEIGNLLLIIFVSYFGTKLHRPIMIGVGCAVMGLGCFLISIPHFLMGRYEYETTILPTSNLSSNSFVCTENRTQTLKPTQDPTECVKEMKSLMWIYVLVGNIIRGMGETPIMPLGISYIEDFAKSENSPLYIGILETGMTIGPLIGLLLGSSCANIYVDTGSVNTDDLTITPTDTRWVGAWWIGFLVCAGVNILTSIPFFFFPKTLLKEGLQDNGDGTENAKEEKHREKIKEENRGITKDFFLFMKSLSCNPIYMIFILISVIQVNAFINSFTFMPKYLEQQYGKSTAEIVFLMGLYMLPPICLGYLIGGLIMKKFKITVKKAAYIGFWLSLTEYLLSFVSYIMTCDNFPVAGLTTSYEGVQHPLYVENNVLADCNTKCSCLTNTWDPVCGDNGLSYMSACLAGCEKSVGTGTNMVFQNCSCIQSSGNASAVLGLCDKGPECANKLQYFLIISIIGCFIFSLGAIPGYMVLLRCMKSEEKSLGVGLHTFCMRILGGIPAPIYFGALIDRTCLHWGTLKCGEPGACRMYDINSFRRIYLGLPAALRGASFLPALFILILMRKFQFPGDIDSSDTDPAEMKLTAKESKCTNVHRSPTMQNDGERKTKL
Method: as §1, §2

## CCN(CC)c1ccc2c(-c3ccc(S(=O)(=O)NCCNC(=O)c4ccc(Nc5nc(N(C)[C@H]6CN(C(=O)CC#N)CC[C@H]6C)c6cc[nH]c6n5)cc4)cc3S(=O)(=O)[O-])c3ccc(=[N+](CC)CC)cc-3oc2c1 [Compound 53, 5-(N-(2-(4-((4-(((3R,4R)-1-(2-cyanoacetyl)-4-methylpiperidin-3-yl)(methyl)amino)-7H-pyrrolo[2,3-d]pyrimidin-2-yl)amino)benzamido)ethyl)sulfamoyl)-2-(6-(diethylamino)-3-(diethyliminio)-3H-xanthen-9-yl)benzenesulfonate]
[1]
  uptake in SLCO1A2 transfected HEK293 cells: is taken up
[2]
  uptake in Slco1a4 transfected HEK293 cells: is taken up
